Experimental data reported in EP4610269A1, “UROKINASE PLASMINOGEN ACTIVATOR SURFACE RECEPTOR (UPAR) LIGANDS FOR DIAGNOSTIC OR THERAPEUTIC USE” (3B Pharmaceuticals GmbH, priority 2024, dated 2025).
pIC50: −log10 of the molar value. Where a SMILES comes first, the peptide text is derived from it. Bridges are numbered along the chain shown (N, C = ends). [ ]: non-standard residue; d: D form. The star is where a group is joined. DOTA = O=C(O)CN1CCN(CC(=O)O)CCN(CC(=O)*)CCN(CC(=O)O)CC1; X5 = O=C(O)CN1CCN(CC(=O)O)CCN([C@H](CCC(=O)*)C(=O)O)CC1; Pro(cis-4-F) = O=C(O)[C@@H]1C[C@H](F)CN1; Phe(2-Cl) = N[C@@H](Cc1ccccc1Cl)C(=O)O; Dopa = N[C@@H](Cc1ccc(O)c(O)c1)C(=O)O; Hyp = O=C(O)[C@@H]1C[C@@H](O)CN1; Gly(cBu) = N[C@H](C(=O)O)C1CCC1; Pentanoyl(4-Me) = CC(C)CCC(=O)*; Cit = NC(=O)NCCC[C@H](N)C(=O)O; Butoxycarbonyl = CCCCOC(=O)*; Phg = N[C@H](C(=O)O)c1ccccc1; dOrn = NCCC[C@@H](N)C(=O)O; Nle = CCCC[C@H](N)C(=O)O; Aze = O=C(O)[C@@H]1CCN1; Nva = CCC[C@H](N)C(=O)O; Abu = CC[C@H](N)C(=O)O; Pentanoyl = CCCCC(=O)*; AEEA = NCCOCCOCC(=O)O; Aib = CC(C)(N)C(=O)O

Experiments:
[1] = molecular target: T1, uPAR-expressing HEC-265 human endometrial adenocarcinoma cells (Homo sapiens, UniProt Q03405); assay: Competitive FACS binding assay; conditions: pIC50 category of FACS binding
T1 construct: Cell surface uPAR-expressing HEC-265 human endometrial adenocarcinoma cells; host or cells: HEC-265
T1 sequence (Q03405 23-335): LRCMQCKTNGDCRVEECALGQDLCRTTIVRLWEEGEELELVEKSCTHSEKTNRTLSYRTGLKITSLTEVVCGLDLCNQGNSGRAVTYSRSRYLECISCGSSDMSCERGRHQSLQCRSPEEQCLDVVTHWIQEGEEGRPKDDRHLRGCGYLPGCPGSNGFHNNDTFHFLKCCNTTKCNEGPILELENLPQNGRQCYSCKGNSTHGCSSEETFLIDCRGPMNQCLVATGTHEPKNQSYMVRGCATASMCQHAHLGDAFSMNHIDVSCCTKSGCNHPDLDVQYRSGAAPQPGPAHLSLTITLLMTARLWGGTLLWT
How it was run: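 Competitive displacement of a 10 nM biotinylated peptide from HEC-265 cells (1 h, 4 °C, PBS/1% BSA), detected via APC-streptavidin by flow cytometry. pIC50 from four-parameter logistic fit of median fluorescence versus concentration.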

human uPAR (uPAR-Fc) = molecular target: T2, human uPAR (uPAR-Fc) (Homo sapiens, UniProt Q03405); assay: Surface plasmon resonance (SPR) assay, single cycle kinetics; assay type: binding; conditions: pKD category for uPAR SPR activity assay; uPAR-Fc on Protein A-Chip, single cycle kinetics, 25°C; read-out: pKD CAT (converted)
T2 construct: comprising amino acids Leu23-Arg303 according to UniProt entry Q03405.1; purchased R&D Systems 10378-UK-100
T2 sequence (Q03405 23-303): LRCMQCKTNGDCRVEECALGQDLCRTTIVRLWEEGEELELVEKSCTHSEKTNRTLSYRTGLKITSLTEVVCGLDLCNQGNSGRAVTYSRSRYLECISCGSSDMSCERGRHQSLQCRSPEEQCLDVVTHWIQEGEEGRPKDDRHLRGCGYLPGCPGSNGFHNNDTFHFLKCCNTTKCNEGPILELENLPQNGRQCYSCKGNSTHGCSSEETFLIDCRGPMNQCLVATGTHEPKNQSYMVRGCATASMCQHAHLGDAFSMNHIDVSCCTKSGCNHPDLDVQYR
How it was run: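 uPAR-Fc (Leu23-Arg303 extracellular domains, human IgG1 Fc) captured on Protein A chip to ~2000 RU; single-cycle kinetics at 25°C in HEPES running buffer pH 7.4 with 0.1% DMSO. KD from double-referenced sensorgrams fitted to 1:1 Langmuir model, reported as pKD.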

pIC50 [1] | Kd (human uPAR (uPAR-Fc)) [µM] | SMILES
7.50 to 7.90 | 0.01 to 0.1 | CCCCC(=O)N[C@H]1CSSC[C@@H](C(N)=O)NC(=O)[C@H](CCC)NC(=O)[C@H]([C@@H](C)CC)NC(=O)[C@@H](CCC(=O)O)NC(=O)[C@@H]2CCCN2C(=O)[C@H](Cc2ccccc2)NC(=O)[C@H](Cc2ccc(O)cc2)NC(=O)[C@H](CCC(N)=O)NC(=O)[C@H](CCCNC(=N)N)NC1=O [UPAR-436, Pent-[Cys-Arg-Gln-Tyr-Phe-Pro-glu-Ile-Nva-Cys]-NH2] (Pentanoyl-CRQYFP[dE]I[Nva]C-NH2; disulfide 1-10)
≥ 8.00 | < 0.00158 | CCCCC(=O)N[C@H]1CSSC[C@@H](C(N)=O)NC(=O)[C@H](CCC)NC(=O)[C@H](c2ccccc2)NC(=O)[C@@H]2C[C@@H](O)CN2C(=O)[C@@H]2CCCN2C(=O)[C@H](Cc2ccccc2)NC(=O)[C@H](Cc2ccc(O)cc2)NC(=O)[C@H](CCC(N)=O)NC(=O)[C@H](CCCNC(=N)N)NC1=O [UPAR-437, Pent-[Cys-Arg-Gln-Tyr-Phe-Pro-Hyp-Phg-Nva-Cys]-NHz] (Pentanoyl-CRQYFP[Hyp][Phg][Nva]C-NH2; disulfide 1-10)
7.50 to 7.90 | 0.00158 to 0.01 | CCCCC(=O)N[C@H]1CSSC[C@@H](C(N)=O)NC(=O)[C@H](CCC)NC(=O)[C@H]([C@@H](C)CC)NC(=O)[C@@H](CCCN)NC(=O)[C@@H]2CCCN2C(=O)[C@H](Cc2ccccc2)NC(=O)[C@H](Cc2ccc(O)cc2)NC(=O)[C@H](CCC(N)=O)NC(=O)[C@H](CCCNC(=N)N)NC1=O [UPAR-438, Pent-[Cys-Arg-Gln-Tyr-Phe-Pro-orn-Ile-Nva-Cys]-NH2] (Pentanoyl-CRQYFP[dOrn]I[Nva]C-NH2; disulfide 1-10)
≥ 8.00 | 0.00158 to 0.01 | CC[C@H](C)[C@@H]1NC(=O)[C@@H](C)NC(=O)[C@@H]2C[C@@H](O)CN2C(=O)[C@H](Cc2ccccc2)NC(=O)[C@H](Cc2ccc(O)cc2)NC(=O)[C@H](CCC(N)=O)NC(=O)[C@H](CCCNC(N)=O)NC(=O)[C@@H](NC(=O)CCC(C)C)CSSC[C@@H](C(N)=O)NC(=O)[C@H](CC(C)C)NC1=O [UPAR-439, iHex-[Cys-Cit-Gln-Tyr-Phe-Hyp-ala-Ile-Leu-Cys]-NH2] ({Pentanoyl(4-Me)}-C[Cit]QYF[Hyp][dA]ILC-NH2; disulfide 1-10)
≥ 8.00 | < 0.00158 | CCCC[C@@H]1NC(=O)[C@H](CCCNC(=N)N)NC(=O)[C@@H](NC(=O)[C@H](CC(C)C)NC(=O)[C@H](CC(=O)O)NC(C)=O)CSSC[C@@H](C(N)=O)NC(=O)[C@H](CC(C)C)NC(=O)[C@H]([C@@H](C)CC)NC(=O)C(C)(C)NC(=O)[C@@H]2CCCN2C(=O)[C@H](Cc2ccccc2)NC(=O)[C@H](Cc2ccc(O)cc2)NC1=O [UPAR-440, Ac-Asp-Leu-[Cys-Arg-Nle-Tyr-Phe-Pro-Aib-Ile-Leu-Cys]-NH2] (Ac-DLCR[Nle]YFP[Aib]ILC-NH2; disulfide 3-12)
7.00 to 7.40 | 0.01 to 0.1 | CCCCC(=O)N[C@H]1CSSC[C@@H](C(N)=O)NC(=O)[C@H](CCC)NC(=O)[C@H]([C@@H](C)CC)NC(=O)[C@@H]2C[C@@H](O)CN2C(=O)[C@@H]2CCCN2C(=O)[C@H](Cc2ccccc2)NC(=O)[C@H](CCCCN)NC(=O)[C@H](CCC(N)=O)NC(=O)[C@H](CCCNC(=N)N)NC1=O [UPAR-442, Pent-[Cys-Arg-Gln-Lys-Phe-Pro-Hyp-Ile-Nva-Cys]-NH2] (Pentanoyl-CRQKFP[Hyp]I[Nva]C-NH2; disulfide 1-10)
≥ 8.00 | < 0.00158 | CC[C@H](C)[C@@H]1NC(=O)[C@@H](C)NC(=O)[C@@H]2CCCN2C(=O)[C@H](Cc2ccccc2)NC(=O)[C@H](Cc2ccc(O)cc2)NC(=O)[C@H](CCCNC(N)=O)NC(=O)[C@H](CCCNC(N)=O)NC(=O)[C@@H](NC(=O)CCC(C)C)CSSC[C@@H](C(N)=O)NC(=O)[C@H](CC(C)C)NC1=O [UPAR-445, iHex-[Cys-Cit-Cit-Tyr-Phe-Pro-ala-Ile-Leu-Cys]-NH2] ({Pentanoyl(4-Me)}-C[Cit][Cit]YFP[dA]ILC-NH2; disulfide 1-10)
≥ 8.00 | < 0.00158 | CC[C@H](C)[C@@H]1NC(=O)[C@@H]2CCN2C(=O)[C@@H]2CCCN2C(=O)[C@H](Cc2ccccc2)NC(=O)[C@H](Cc2ccc(O)cc2)NC(=O)[C@H](CCC(N)=O)NC(=O)[C@H](CCCNC(N)=O)NC(=O)[C@@H](NC(=O)CCC(C)C)CSSC[C@@H](C(N)=O)NC(=O)[C@H](CC(C)C)NC1=O [UPAR-446, iHex-[Cys-Cit-Gln-Tyr-Phe-Pro-Aze-Ile-Leu-Cys]-NH2] ({Pentanoyl(4-Me)}-C[Cit]QYFP[Aze]ILC-NH2; disulfide 1-10)
≥ 8.00 | < 0.00158 | CCCCC(=O)N[C@H]1CSSC[C@@H](C(N)=O)NC(=O)[C@H](CCC)NC(=O)[C@H](Cc2ccccc2)NC(=O)[C@@H]2C[C@@H](O)CN2C(=O)[C@@H]2CCCN2C(=O)[C@H](Cc2ccccc2)NC(=O)[C@H](Cc2ccc(O)cc2)NC(=O)[C@H](CCC(N)=O)NC(=O)[C@H](CCCNC(=N)N)NC1=O [UPAR-447, Pent-[Cys-Arg-Gln-Tyr-Phe-Pro-Hyp-Phe-Nva-Cys]-NH2] (Pentanoyl-CRQYFP[Hyp]F[Nva]C-NH2; disulfide 1-10)
≥ 8.00 | < 0.00158 | CCCCC(=O)N[C@H]1CSSC[C@@H](C(N)=O)NC(=O)[C@H](CCC)NC(=O)[C@H]([C@@H](C)CC)NC(=O)[C@@H]2C[C@@H](O)CN2C(=O)[C@@H]2CCCN2C(=O)[C@H](Cc2ccccc2)NC(=O)[C@H](Cc2ccc(O)cc2)NC(=O)[C@H](CCCCN)NC(=O)[C@H](CCCNC(=N)N)NC1=O [UPAR-448, Pent-[Cys-Arg-Lys-Tyr-Phe-Pro-Hyp-Ile-Nva-Cys]-NHz] (Pentanoyl-CRKYFP[Hyp]I[Nva]C-NH2; disulfide 1-10)
≤ 6.90 | 0.00158 to 0.01 | CC[C@H](C)[C@@H]1NC(=O)[C@@H](C)NC(=O)[C@@H]2CCCN2C(=O)[C@H](Cc2ccccc2)NC(=O)[C@H](Cc2ccc(O)cc2)NC(=O)[C@H](CCC(N)=O)NC(=O)[C@H](CCCNC(=N)N)NC(=O)[C@@H](NC(=O)CCC(C)C)CSSC[C@@H](C(=O)NCCOCCOCC(=O)N[C@@H](CCCCNC(=O)CN2CCN(CC(=O)O)CCN(CC(=O)O)CCN(CC(=O)O)CC2)C(N)=O)NC(=O)[C@H](CC(C)C)NC1=O [UPAR-449, iHex-[Cys-Arg-Gln-Tyr-Phe-Pro-ala-Ile-Leu-Cys]-O2Oc-Lys(DOTA)-NH2] ({Pentanoyl(4-Me)}-CRQYFP[dA]ILC[AEEA]K(DOTA)-NH2; disulfide 1-10)
≥ 8.00 | < 0.00158 | CCCCC(=O)N[C@H]1CSSC[C@@H](C(N)=O)NC(=O)[C@H](CCC)NC(=O)[C@H]([C@@H](C)CC)NC(=O)[C@@H]2C[C@@H](O)CN2C(=O)[C@@H]2CCCN2C(=O)[C@H](Cc2ccccc2Cl)NC(=O)[C@H](Cc2ccc(O)cc2)NC(=O)[C@H](CCCCNC(=O)CN2CCN(CC(=O)O)CCN(CC(=O)O)CCN(CC(=O)O)CC2)NC(=O)[C@H](CCCNC(N)=O)NC1=O [UPAR-450, Pent-[Cys-Cit-Lys(DOTA)-Tyr-Ocf-Pro-Hyp-Ile-Nva-Cys]-NH2] (Pentanoyl-C[Cit]K(DOTA)Y[Phe(2-Cl)]P[Hyp]I[Nva]C-NH2; disulfide 1-10)
≥ 8.00 | 0.00158 to 0.01 | CC[C@@H]1NC(=O)[C@H]([C@@H](C)CC)NC(=O)[C@@H](C)NC(=O)[C@@H]2CCCN2C(=O)[C@H](Cc2ccccc2)NC(=O)[C@H](Cc2ccc(O)cc2)NC(=O)[C@H](CCC(N)=O)NC(=O)[C@H](CCCNC(N)=O)NC(=O)[C@@H](NC(=O)CCC(C)C)CSSC[C@@H](C(N)=O)NC1=O [UPAR-451, iHex-[Cys-Cit-Gln-Tyr-Phe-Pro-ala-Ile-Abu-Cys]-NH2] ({Pentanoyl(4-Me)}-C[Cit]QYFP[dA]I[Abu]C-NH2; disulfide 1-10)
≥ 8.00 | < 0.00158 | CC[C@H](C)[C@@H]1NC(=O)C(C)(C)NC(=O)[C@@H]2CCCN2C(=O)[C@H](Cc2ccccc2)NC(=O)[C@H](Cc2ccc(O)cc2)NC(=O)[C@H](CCCCNC(=O)CN2CCN(CC(=O)O)CCN(CC(=O)O)CCN(CC(=O)O)CC2)NC(=O)[C@H](CCCNC(N)=O)NC(=O)[C@@H](NC(=O)CCC(C)C)CSSC[C@@H](C(N)=O)NC(=O)[C@H](CC(C)C)NC1=O [UPAR-452, iHex-[Cys-Cit-Lys(DOTA)-Tyr-Phe-Pro-Aib-Ile-Leu-Cys]-NH2] ({Pentanoyl(4-Me)}-C[Cit]K(DOTA)YFP[Aib]ILC-NH2; disulfide 1-10)
≥ 8.00 | 0.00158 to 0.01 | CC(C)CCC(=O)N[C@H]1CSSC[C@@H](C(N)=O)NC(=O)[C@H](CC(C)C)NC(=O)[C@H](C2CCC2)NC(=O)[C@@H](C)NC(=O)[C@@H]2CCCN2C(=O)[C@H](Cc2ccccc2)NC(=O)[C@H](Cc2ccc(O)cc2)NC(=O)[C@H](CCC(N)=O)NC(=O)[C@H](CCCNC(N)=O)NC1=O [UPAR-453, iHex-[Cys-Cit-Gln-Tyr-Phe-Pro-ala-Cbg-Leu-Cys]-NH2] ({Pentanoyl(4-Me)}-C[Cit]QYFP[dA][Gly(cBu)]LC-NH2; disulfide 1-10)

SMILES | pIC50 [1] | Kd (human uPAR (uPAR-Fc)) [µM]
CCCCOC(=O)N[C@H]1CSSC[C@@H](C(N)=O)NC(=O)[C@H](CCC)NC(=O)[C@H]([C@@H](C)CC)NC(=O)[C@@H]2C[C@@H](O)CN2C(=O)[C@@H]2C[C@H](F)CN2C(=O)[C@H](Cc2ccccc2)NC(=O)[C@H](Cc2ccc(O)c(O)c2)NC(=O)[C@H](CCCCNC(=O)CC[C@H](C(=O)O)N2CCN(CC(=O)O)CCN(CC(=O)O)CC2)NC(=O)[C@H]([C@@H](C)O)NC1=O [UPAR-444, Butoc-[Cys-Thr-Lys(NODAGA)-Dopa-Phe-4Cfp-Hyp-Ile-Nva-Cys]-NH2] (Butoxycarbonyl-CTK(X5)[Dopa]F[Pro(cis-4-F)][Hyp]I[Nva]C-NH2; disulfide 1-10) | ≥ 8.00 | < 0.00158
